Results reported in US6787318B1, “Assay for evaluating the therapeutic effectiveness of agents in reducing Alzheimer's disease pathology” (Roskamp Research Institute, LLC, priority 1999, dated 2004).
“Also recorded” adds a separate entry of the source.

Key:
[1] = system: CD40; test: CD40 expression in Aβ-treated N9 and N60 microglial cells, flow cytometry; type: cell-based, murine
Source text: Mononuclear cells from AD patients secrete markedly higher levels of IFN-γ compared to age-matched controls (18).

[2] = system: CD40; test: CD40 protein in cultured HAEC, Western immunoblotting; type: cell-based, human; settings: Aβ 5 μM, IFN-γ 100 U/mL, 48 hours
Protocol: Cultured HAEC were plated at 1×10^6 cells/well in 100 mm culture dishes (Falcon, Becton Dickinson Inc. New Jersey). […] Cells were washed in ice-cold phosphate buffered saline (PBS) three times and lysed in an ice-cold lysis buffer containing 0.2 mM EDTA, 20 mM Tris/HCl (pH 8.0), 100 mM NaCl, 3% Nonidet P-40, 50 mM NaF, 10 mM sodium pyrophosphate, 2 mM orthovanadate, 10 μg/mL each of aprotinin and leupeptin and 1 mM PMSF. After incubation for thirty minutes on ice, samples were centrifuged at 15,000 rpm for fifteen minutes, and supernatants were collected. Total protein content was estimated using the Bio-Rad protein assay. An aliquot corresponding to 50 μg of total protein of each sample was separated by SDS-PAGE and transferred electrophoretically to Hy-bond PVDF membranes (Bio-Rad, California). Nonspecific antibody binding was blocked overnight at 4° C. with 5% non-fat dry milk in TBS (20 mM Tris, 500 mM NaCl, pH 7.5). […] Blots were also carried out on identical membranes with a reference anti-actin mouse monoclonal antibody (Boehringer Mannhem), which allowed for semi-quantitative CD40 protein determination. Densitometric analysis was performed for protein bands using the Fluor-S™ MultiImager with Quantity One™ software (Bio-Rad, California).

[3] = system: CD40; test: CD40 cell-surface expression on HAEC, flow cytometry; type: cell-based, human; settings: Aβ 500 nM, IFN-γ 10 U/mL; vs control peptide or Aβ-free
Protocol: Cultured HAEC were treated as described above. […] Cells were analyzed on a FACScan flow cytometer (Becton-Dickinson, Mountain View, Calif.) using LYSIS-II software. CD40-expressing cells are defined as percentage of CD40-staining cells minus the percentage of IgG1-staining cells.
CD40 expression between control peptide-treated and Aβ-free AEC was relatively similar.

[4] = system: HAEC; test: Cytotoxicity in HAEC, LDH release assay; type: cell-based, human; settings: 500 nM, 48 hours
Protocol: Previous reports have shown that overexpression of amyloid precursor protein or exogenous addition of Aβ peptides can have cytotoxic effects on cultured endothelial cells.
In order to determine if ligation of endothelial CD40 could result in production of pro-inflammatory cytokines, IL-1β was measured following treatment with IFN-γ or Aβ peptides. […] There was not observe a significant induction of endothelial cell death by LDH release assay between treatment groups during the time course examined by IL-1β release assay (by One-way ANOVA, F(6,41)=0.322, p=0.921), supporting the hypothesis that stimulation of the CD40 pathway in endothelial cells results in an early pro-inflammatory cascade which later promotes cell injury, rather than induce cytotoxicity acutely.

[5] = system: CD40; test: CD40 cell ELISA on cultured HAEC; type: cell-based, human; settings: Aβ 50 nM to 10,000 nM; IFN-γ 5 to 500 U/mL; 48 hours
Protocol: To determine if CD40 expression on cultured HAEC was IFN-γ or Aβ dose-dependent, CD40 cell ELISA assays were performed according to published procedures. Briefly, cultured HAEC were plated at 2×10^4 cells/well in flat-bottom, 96-well tissue culture plates (Nunc-Immuno™ Plate, Denmark). […] Other HAEC were treated with a dose range (5 U/mL to 500 U/mL) of IFN-γ. […] Forty-eight hours post-treatment, plates were fixed overnight at 4° C. in 1% paraformaldehyde diluted in 1×PBS, washed three times with wash buffer (0.5% Tween 20 in 1×PBS), and subsequently incubated with […] of blocking buffer (10% fetal bovine serum in wash buffer) for one hour at 37° C. Cells were then treated with purified anti-human CD40 antibody ([…], PharMingen, Los Angeles, Calif.) in […] of blocking buffer for one hour at 37° C. Plates were washed four times with wash buffer. Biotinylated anti-mouse IgG1 (PharMingen, Los Angeles, Calif.; 1:2,000 dilution in blocking buffer, […]) was added and incubated for one hour at 37° C., followed by the addition of […] of a 1:3,000 dilution of HRP-Streptavidin (ZYMED, San Francisco, Calif.) for thirty minutes at 37° C. Plates were washed 4× with wash buffer and developed for twenty minutes at room temperature using the 3, 3′, 5, 5′-tetramethylbenzidine (TMB) one-step substrate system (DAKO, Carpinteria, Calif.) followed by the addition of 100 μL/well of 2N H2SO4 to stop the reaction. Absorbance was measured at 450 nm using a microplate spectrophotometer (SPECTRAmax 250, Molecular Devices, Sunnyvale, Calif.).

[6] = system: IL-1β; test: Human IL-1β release ELISA, HAEC with or without CD40 ligation; type: cell-based; settings: for IL-1β release following CD40 ligation: 48 hour pre-treatment, then CD40L for eight hours; for IL-1β release in the absence of CD40L stimulation: Aβ 500 nM, IFN-γ 10 U/mL, 48 hours
Protocol: To examine if endothelial CD40 would be functional, cultured HAEC were plated at 5×10^4 cells/well in 6-well tissue culture plates (Nunc-Immuno™ Plate, Denmark) and incubated at 37° C. with human CD40L recombinant protein (CD40L, 0.5 ug/mL, kindly provided by Dr. Jean-Yves Bonnefoy, Glaxo Institute for Molecular Biology, Geneva) in fresh cultured media for eight hours, and cell-free supernatants were collected for IL-1β release assay. The assay for human IL-1β was performed in strict accordance with the manufacturer's instruction using the human Predicta™ IL-1β Kit (Genzyme). Absorbance at 450 nm was measured using a microplate spectrophotometer (SPECTRAmax 250, Molecular Devices, Sunnyvale, Calif.).
A second group of cells was subjected to these same treatments and incubated with CD40L ([…]) for eight hours following the initial 48 hour treatment period. IL-1β release was then quantified using a human IL-1β ELISA kit as described in materials and methods.

[7] = system: HAEC; test: MTS cell death/proliferation in Aβ-treated HAEC; type: cell-based, human; settings: 10 or 20 μM
Protocol: In vitro measurement of Aβ-induced changes in expression of the inflammatory cell-surface molecules CD40 and […] in cultured HAEC and HASM cells was performed using a slightly modified ABC-based cell-ELISA (CELISA). […] After PBS washes, 4% neutral formalin solution (Sigma) was used for fixation of the cells. Following quenching of the endogenous peroxidase activity with 3% H2O2 and routine blocking of non-specific binding, the biotinylated specific secondary antibodies against the primary antibodies (goat anti-mouse or anti-rabbit IgG) were applied. The combination of EXTRAVIDIN® Proxidase and the subsequent color reaction was performed strictly according to the manufacturer's instructions in the EXTRAVIDIN® Peroxidase Staining Kit (Sigma). The absorbance of 405 nm was then measured using a microplate reader (SPECTRAmax 250, Molecular Devices). The optical density (O.D.) value for the wells in the absence of the primary antibody for each group was considered as background and subtracted as the blank. In addition, stimulation with IFN-γ for CD40 was included as a positive control in the appropriate plate. Since CD45 is not expressed by endothelial or smooth muscle cells, the assays for expression of CD45 in these Aβ-treated cells were used as negative controls throughout the experiment. […]

[8] = system: IL-1β; test: IL-1β secretion from HAEC, ELISA; type: cell-based, human
Protocol: (§1) The assay for either IL-1β or IFN-γ was performed in strict accordance with the manufacturer's instructions for the respective assay kits.
(§2) The resulting cell culture media were assayed for IL-1β or IFN-γ using ELISA. […] The lowest effective concentration was determined to be 100 nM for IFN-γ ([…]). The lowest effective concentration was determined to be 100 nM for IFN-γ (p<0.01) and 1 μM for IL-1β (p<0.01).

[9] = system: IFN-γ; test: IFN-γ secretion from HAEC, ELISA; type: cell-based, human
Protocol: as §1
(§3) Activation of CD40 signalling can be achieved by stimulation with either CD40L or certain anti-CD40 mAbs. Since synthetic CD40L is not commercially available, one of the anti-CD40 mAbs (clone 3/23), which has been reported to activate CD40 signalling, was used to mimic the effect of interaction of CD40-CD40L. All Aβ-treated cells were incubated with 1 μg/ml anti-CD40 mAb […]) for four hours followed by CELISA.
as §2

[10] = system: IFN-γR; test: IFN-γR expression in HAEC, cell-ELISA (CELISA) and Western blotting; type: cell-based, human; settings: for expression of IFN-γR on cytokine treatment: recombinant human cytokine
Protocol: (§4) In vitro measurement of Aβ-induced changes in expression of the inflammatory cell-surface molecules CD40 and […] in cultured HAEC and HASM cells was performed using a slightly modified ABC-based cell-ELISA (CELISA). […] After PBS washes, 4% neutral formalin solution (Sigma) was used for fixation of the cells. Following quenching of the endogenous peroxidase activity with 3% H2O2 and routine blocking of non-specific binding, the biotinylated specific secondary antibodies against the primary antibodies (goat anti-mouse or anti-rabbit IgG) were applied. The combination of EXTRAVIDIN® Proxidase and the subsequent color reaction was performed strictly according to the manufacturer's instructions in the EXTRAVIDIN® Peroxidase Staining Kit (Sigma). The absorbance of 405 nm was then measured using a microplate reader (SPECTRAmax 250, Molecular Devices). The optical density (O.D.) value for the wells in the absence of the primary antibody for each group was considered as background and subtracted as the blank. In addition, stimulation with IFN-γ for CD40 was included as a positive control in the appropriate plate. Since CD45 is not expressed by endothelial or smooth muscle cells, the assays for expression of CD45 in these Aβ-treated cells were used as negative controls throughout the experiment. In addition, to evaluate the degree of cell death or proliferation in the Aβ-treated, cells, parallel experiments were performed using the MTS (3-(4,5-dimethylthiazol-2-yl)-5-(3-carboxymethoxyphenyl)-2-(4-sulfophenyl)-2H-tetrazolium) cell-proliferation kit (Promega).
as §3
The total protein was estimated using the Bio-Rad protein assay. An aliquot corresponding to 100 μg of total protein of each sample was separated by SDS/PAGE (polyacrylamide gel electrophoresis) and transferred electrophoretically to PVDF filters. Non-specific binding of antibody was blocked with 5% non-fat dry milk, in 20 mM Tris/HCl, pH 7.5/150 mM NaCl/0.1% Triton X-100. Immunoblotting was carried out with the appropriate antibody followed by alkaline phosphatase-conjugated secondary anti-immunoglobulin antibodies. These were then developed by the chemiluminescence method (Bio-Rad).

[11] = system: IFN-γR; test: IFN-γR expression in HASM cells, cell-ELISA (CELISA); type: cell-based, human
Protocol: as §4, §3

[12] = system: CD40; test: CD40 expression in HAEC, cell-ELISA (CELISA); type: cell-based, human; settings: for expression of CD40 on cytokine treatment: recombinant human cytokine
Protocol: as §4

[13] = system: neurons; settings: exogenous, at levels similar to those produced by activated microglia; cited from earlier work
[14] = system: TNF-α; test: TNF-α release from cultured microglia, TNF-α ELISA; type: cell-based, mice; settings: microglia pre-treated with 500 nM Aβ1-42
[15] = system: primary cultured cortical neurons; test: Primary cultured microglia-mediated neuronal cell injury (micrographs, 51Cr release, LDH release); type: cell-based, mice; settings: primary cultured microglia with cortical neurons
Source text: CD45 positive cells (brown) are microglia, while neurofilament L-staining cells (red) are neurons. […] Results shown are from one of three independent experiments with similar results; FIG. 2E is a graph showing primary cultured microglia-mediated neuronal cell injury as evidenced by ^51Cr release. Data are reported as mean ^51Cr release values±1 SEM and n=9 for each condition presented. […] N=9 for each condition presented.
Having shown that Aβ peptides activate microglia through the CD40 pathway, it was then investigated whether activation of Aβ-pretreated microglia by ligation of CD40 could mediate neuronal cell injury (23,24).

[16] = system: cortical neurons; test: Cortical neurons incubated with treated N9 microglia, photomicrographs; type: cell-based, murine; settings: Aβ1-42 250 nM, CD40L 0.5 μg/ml
[17] = increasing concentrations, 24 hours

Aβ1-40: amyloid β peptide 1-40, freshly solubilized
CD40 expression on cultured microglial cells ([1]; 250 nM freshly solubilized peptide, N9 and N60 cells, vs control peptide or Aβ-free): significantly induce CD40 expression
increase in CD40 expression vs control peptide or Aβ-free, Western [2]: ~2 fold
CD40 cell-surface expression, flow cytometry [3]: significantly induce CD40 expression
cell injury, LDH release [4]: no significant induction of cell injury
dose dependence of endothelial CD40 [5]: marked increase in endothelial CD40 which is dose-dependent
IL-1β release following CD40 ligation [6]: synergistic effect
IL-1β release in the absence of CD40L stimulation [6]: not sufficient to elicit IL-1β
cell death, MTS assay, HAEC [7]: significant amount of cell death
IL-1β secretion at largest dose ([8]; 20 μM): has no effect
IL-1β secretion, dose dependence [8, 17]: does not show a dose-dependent effect
IFN-γ production at largest dose ([9]; 20 μM, vs control): does induce a significant production of IFN-γ
IFN-γ secretion, dose dependence [9, 17]: does not show a dose-dependent effect
IFN-γR expression in HAEC ([10]; 48 hours): neither Aβ1-40 nor Aβ25-35 modulate the IFN-γR expression
IFN-γR expression in HASM cells ([11]; 48 hours): induces a significant effect on IFN-γR
IFN-γR expression in HASM cells on CD40 ligation by mAb (3/23) ([11]; Aβ-treated cells, 1 μg/ml mAb, four hours): synergistic
CD40 expression in HAEC, dose dependence [12]: dose-dependently increase CD40 expression
lowest effective concentration for CD40 expression ([12]; HAEC): 10 µM

IFN-γ: Human IFN-γ recombinant protein (Genzyme)
effect of cytokine on Aβ-dependent CD40 expression ([1]; low dose 10 U/mL, Aβ-challenged microglia): synergistically enhances Aβ-dependent CD40 expression
increase in CD40 expression vs control peptide or Aβ-free, Western [2]: ~2.5 fold
CD40 cell-surface expression, flow cytometry [3]: significantly induce CD40 expression
dose dependence of endothelial CD40 [5]: dose-dependent induction of endothelial CD40
IL-1β release following CD40 ligation [6]: synergistic effect; also recorded: more pronounced than Aβ's effect
IL-1β release in the absence of CD40L stimulation [6]: not sufficient to elicit IL-1β
expression of IFN-γR on cytokine treatment [10]: up-regulate the expression of CD40 and IFN-γR
expression of CD40 on cytokine treatment [12]: up-regulate the expression of CD40 and IFN-γR

IL-1β: recombinant human cytokine
expression of IFN-γR on cytokine treatment [10]: up-regulate the expression of CD40 and IFN-γR
expression of CD40 on cytokine treatment [12]: up-regulate the expression of CD40 and IFN-γR

TNF-α
neuronal injury and death, LDH release [13]: dose-dependently induces neuronal injury and death

B1: CD40L: human CD40L recombinant protein (protein)
chain: ENSFEMQKGDQNPQIAAHVISEASSKTTSVLQWAEKGYYTMSNNLVTLENGKQLTVKRQGLYYIYAQVTFCSNREASSQAPFIASLCLKSPGRFERILLRAANTHSSAKPCGQQSIHLGGVFELQPGASVFVNVTDPSQVSHGTGFTSFGLLKL
TNF-α release on addition of CD40L [14]: synergistically increases TNF-α release
neuronal degeneration / injury in micrographs [15]: not detectable
change in cortical neurons [16]: no change in cortical neurons
IL-1β release ([6]; CD40L and Aβ-free condition): approximately 50 pg/mg total protein
